Patent US5384309A, “Cyclized peptides and their use as platelet aggregation inhibitors” (Genentech, Inc., priority 1989, dated 1995)
Like-named read-outs stand apart in the source and are kept apart here. Positions of bridges follow the written chain, without caps; N, C: chain ends. Non-standard residues stand in square brackets, D forms with d. Residues, ends and D or L forms follow the SMILES beside them. No end group written: not given here.

Experiments:
[1] = target: T1, purified human platelet GP llbllla receptor (Homo sapiens, UniProt P05106+P08514); experiment: biochemical; type: binding; settings: for IC50: ELISA, fibrinogen-coated plates, solubilized GP llbllla, read-out: IC50, inhibition of fibrinogen binding to the GP llbllla platelet receptor
T1 construct: Platelet GP llbllla was prepared by the method of Fitzgerald, et al; from tissue; host or cells: human platelets
T1 sequence (P08514 32-887 limits assumed): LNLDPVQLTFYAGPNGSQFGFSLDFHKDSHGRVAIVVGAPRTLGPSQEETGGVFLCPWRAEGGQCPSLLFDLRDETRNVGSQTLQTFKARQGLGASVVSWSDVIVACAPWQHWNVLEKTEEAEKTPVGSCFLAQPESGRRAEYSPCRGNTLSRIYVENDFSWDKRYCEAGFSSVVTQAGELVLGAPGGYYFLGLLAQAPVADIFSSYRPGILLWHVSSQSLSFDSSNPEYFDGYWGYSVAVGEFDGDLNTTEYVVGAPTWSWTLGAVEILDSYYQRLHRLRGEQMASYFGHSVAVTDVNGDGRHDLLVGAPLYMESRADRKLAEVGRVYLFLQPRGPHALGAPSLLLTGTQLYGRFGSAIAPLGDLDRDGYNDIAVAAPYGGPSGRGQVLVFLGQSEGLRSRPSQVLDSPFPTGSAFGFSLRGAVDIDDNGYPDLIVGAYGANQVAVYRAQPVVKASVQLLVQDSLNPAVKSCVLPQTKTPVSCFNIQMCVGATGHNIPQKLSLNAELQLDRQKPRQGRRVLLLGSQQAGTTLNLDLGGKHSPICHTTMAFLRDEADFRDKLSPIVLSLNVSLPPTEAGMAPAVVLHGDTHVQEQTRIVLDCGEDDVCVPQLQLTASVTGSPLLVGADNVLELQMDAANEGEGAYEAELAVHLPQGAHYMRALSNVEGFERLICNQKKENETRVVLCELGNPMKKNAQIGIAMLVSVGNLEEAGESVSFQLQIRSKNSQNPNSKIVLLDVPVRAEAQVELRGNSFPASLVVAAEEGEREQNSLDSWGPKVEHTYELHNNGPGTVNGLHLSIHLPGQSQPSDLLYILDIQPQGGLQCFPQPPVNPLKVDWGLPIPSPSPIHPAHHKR
T1 sequence (P08514 891-1039 partner limits assumed): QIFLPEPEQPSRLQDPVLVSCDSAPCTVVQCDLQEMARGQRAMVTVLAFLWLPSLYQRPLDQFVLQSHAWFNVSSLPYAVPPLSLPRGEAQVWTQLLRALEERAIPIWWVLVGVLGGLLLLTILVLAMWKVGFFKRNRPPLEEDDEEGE
T1 sequence (P05106 27-788): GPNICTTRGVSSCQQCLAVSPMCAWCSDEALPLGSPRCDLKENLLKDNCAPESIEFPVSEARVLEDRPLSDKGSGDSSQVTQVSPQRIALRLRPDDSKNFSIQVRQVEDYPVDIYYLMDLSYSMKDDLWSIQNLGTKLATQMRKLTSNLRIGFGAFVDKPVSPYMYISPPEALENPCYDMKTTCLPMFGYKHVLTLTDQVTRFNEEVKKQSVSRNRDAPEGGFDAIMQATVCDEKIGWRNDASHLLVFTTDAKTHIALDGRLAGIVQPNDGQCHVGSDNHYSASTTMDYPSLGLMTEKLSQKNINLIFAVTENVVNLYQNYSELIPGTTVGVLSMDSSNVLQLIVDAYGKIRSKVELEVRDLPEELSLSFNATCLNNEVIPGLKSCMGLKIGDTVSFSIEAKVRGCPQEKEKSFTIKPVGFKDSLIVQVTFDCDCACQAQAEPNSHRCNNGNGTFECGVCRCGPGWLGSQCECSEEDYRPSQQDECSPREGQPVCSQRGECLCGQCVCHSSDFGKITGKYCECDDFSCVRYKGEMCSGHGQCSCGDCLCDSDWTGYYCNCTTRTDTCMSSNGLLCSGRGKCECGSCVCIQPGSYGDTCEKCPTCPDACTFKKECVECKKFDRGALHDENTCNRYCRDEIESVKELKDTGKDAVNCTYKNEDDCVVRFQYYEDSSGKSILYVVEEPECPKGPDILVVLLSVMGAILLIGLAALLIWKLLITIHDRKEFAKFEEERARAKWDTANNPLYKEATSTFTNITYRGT
Description: In-vitro biological activity of the compounds of Formula I was monitored using a modified fibrinogen--GP llbllla ELISA based on the method of Nachman and Leung (J. Clin. Invest. (1982) 69, 263-269) which measures the inhibition of fibrinogen binding to purified human platelet GP llbllla receptor. Human fibrinogen was prepared by the method of Lipinska, et al. (J. Lab. Grin. Med. (1974) 84, 509-516). Platelet GP llbllla was prepared by the method of Fitzgerald, et al. (Anal. Blochem. (1985) 151,169-177.
Microtiter plates are coated with fibrinogen (10 ug/ml) and then blocked with TACTS buffer containing 0.5% bovine serum albumin (BSA). (TACTS buffer contains 20 mM Tris. HCl, pH 7.5, 0.02% sodium azide, 2 mM calcium chloride, 0.05% Tween 20, 150 mM sodium chloride.) The plate is washed with phosphate buffered saline (PBS) containing 0.01% Tween 20 and the sample to be determined added, followed by addition of solubilized GP llbllla receptor (40 ug/ml) in TACTS, 0.5% BSA. After incubation, the plate is washed and 1 ug/ml of murine anti-platelet monoclonal antibody AP3 (P. J. Newman et al. Blood (1985) 65, 227-232) is added. After another wash a goat anti-mouse IgG conjugated to horseradish peroxidase is added. A final wash is performed and developing reagent buffer (10 mg o-phenylenediamine dihydrochloride, 0.0212% hydrogen peroxide, 0.22 mM citrate, 50 mM phosphate, pH 5.0) is added and then incubated until color develops. The reaction is stopped with 1N sulfuric acid and the absorbance at 492 nm is recorded.
Microtiter plates are coated with fibrinogen (10 ug/ml) and then blocked with TACTS buffer containing 0.5% BSA. (TACTS buffer contains 20mM Tris. HCl, pH 7.5, 0.02% sodium azide, 2 mM calcium chloride, 0.05% Tween 20, 150 mM sodium chloride.) The plate is washed with phosphate buffered saline containing 0.01% Tween 20 and a dilution of the sample to be determined added, followed by addition of solubilized llbllla receptor (40 ug/ml) in TACTS, 0.5% BSA. After incubation, the plate is washed and murine monoclonal anti-platelet antibody AP3 (1 ug/ml) added. After another wash goat and anti-mouse IgG conjugated to horseradish peroxidase is added. A final wash is performed and developing reagent buffer (10 mg o-phenylenediamine dihydrochloride, 0.0212% hydrogen peroxide, 0.22 mM citrate, 50 mM phosphate, pH 5.0) is added and then incubated until color developed. The reaction is stopped with 1N sulfuric acid and the absorbance at 492 nm is recorded.

[2] = target: human platelet rich plasma (PRP) platelets (Homo sapiens, UniProt P05106+P08514); experiment: platelet aggregation inhibition in human platelet rich plasma (ADP induced); type: cell-based; settings: ADP 8 uM
Sequence of human platelet rich plasma (PRP) platelets (P08514 32-1039): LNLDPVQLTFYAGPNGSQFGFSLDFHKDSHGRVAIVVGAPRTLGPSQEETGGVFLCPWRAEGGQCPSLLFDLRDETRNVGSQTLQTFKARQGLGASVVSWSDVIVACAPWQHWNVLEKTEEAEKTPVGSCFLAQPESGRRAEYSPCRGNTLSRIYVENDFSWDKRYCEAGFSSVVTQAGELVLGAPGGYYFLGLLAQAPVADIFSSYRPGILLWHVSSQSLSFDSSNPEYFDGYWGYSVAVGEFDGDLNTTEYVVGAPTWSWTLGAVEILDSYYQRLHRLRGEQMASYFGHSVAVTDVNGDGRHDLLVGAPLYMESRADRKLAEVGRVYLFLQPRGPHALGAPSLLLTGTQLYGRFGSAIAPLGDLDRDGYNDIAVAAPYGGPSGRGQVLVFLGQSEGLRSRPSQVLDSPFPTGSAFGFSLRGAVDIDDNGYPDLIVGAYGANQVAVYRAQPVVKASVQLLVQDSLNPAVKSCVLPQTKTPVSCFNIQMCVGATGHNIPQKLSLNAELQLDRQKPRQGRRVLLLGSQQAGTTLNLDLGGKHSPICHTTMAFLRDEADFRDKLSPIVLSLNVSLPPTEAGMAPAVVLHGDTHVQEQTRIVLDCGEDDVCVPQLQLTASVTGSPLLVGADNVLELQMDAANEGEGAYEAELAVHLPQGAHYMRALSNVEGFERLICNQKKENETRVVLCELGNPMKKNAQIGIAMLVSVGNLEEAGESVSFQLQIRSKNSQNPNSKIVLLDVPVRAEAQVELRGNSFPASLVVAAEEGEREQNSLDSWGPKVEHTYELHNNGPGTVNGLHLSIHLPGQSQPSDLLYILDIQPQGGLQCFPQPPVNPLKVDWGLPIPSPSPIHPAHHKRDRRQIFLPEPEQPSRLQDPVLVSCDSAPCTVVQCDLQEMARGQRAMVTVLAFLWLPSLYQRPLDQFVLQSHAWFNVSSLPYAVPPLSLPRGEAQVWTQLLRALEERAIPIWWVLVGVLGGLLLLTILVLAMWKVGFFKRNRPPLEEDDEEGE
Sequence of human platelet rich plasma (PRP) platelets (P05106 27-788): as the sequence (P05106 27-788) above
Description: (§1) In addition to the GP llbllla ELISA assay, platelet aggregation assays may be performed in human platelet rich plasma (PRP). Fifty milliliters of whole human blood (9 parts) is drawn on 3.6% sodium citrate (1 part) from a donor who has not taken aspirin or related medications for at least two weeks. The blood is centrifuged at 160 ×g for 10 min at 220° C. and then allowed to stand for 5 min after which the PRP is decanted. Platelet poor plasma (PPP) is isolated from the remaining blood after centrifugation at 2000×g for 25 min. The platelet count of the PRP was diluted to ca. 300000 per microliter with PPP.
A 225 uL aliquot of PRP plus 25 uL of either a dilution of the test sample or a control (PBS) is incubated for 5 min in a Chrono-log Whole Blood Aggregometer at 25° C. An aggregatng agent (collagen, 1 ug/ml; U46619, 100 ng/ml; or ADP, 8 uM) is added and the platelet aggregation recorded.
as §1, with “Fifty” for “In addition to the GP llbllla ELISA assay, platelet aggregation assays may be performed in human platelet rich plasma (PRP). Fifty”, “160×g” for “160 ×g”, “22°” for “220°”
A 225 uL aliquot of PRP plus 25 uL of either a dilution of the test sample or a control (PBS) is incubated for 5 min in a Chrono-log Whole Blood Aggregometer at 25° C. Adenosine diphosphate (ADP, 8 uM) is added and the platelet aggregation recorded.

[3] = GP IIbIIIa receptor assay for inhibition of fibrinogen binding, smaller ratio = more active

N=C(N)NCCC[C@H](N)C(=O)NCC(=O)N[C@@H](CC(=O)O)C(=O)N[C@@H](CO)C(=O)O [Arg--Gly--Asp--Ser, reference compound]
Ratio of IC50 of test compound to IC50 of Gly-Arg-Gly-Asp-Val [1]: > 20

CC(C)[C@H](NC(=O)[C@H](CC(=O)O)NC(=O)CNC(=O)[C@@H](N)CCCNC(=N)N)C(=O)O [Arg--Gly--Asp--Val, reference compound] (H-RGDV-OH)
Ratio of IC50 of test compound to IC50 of Gly-Arg-Gly-Asp-Val [1]: 3

N=C(N)NCCC[C@@H]1NC(=O)CNC(=O)CSC[C@@H](C(=O)O)NC(=O)[C@H](CC(=O)O)NC(=O)CNC1=O [Ex. 2, cyclo-S-acetyl-Gly-Arg-Gly-Asp-Cys-OH] ({CH2CO}-GRGDC-OH; thioether N-5)
Ratio of IC50 of test compound to IC50 of Gly-Arg-Gly-Asp-Val [1, 3]: 0.14 | IC50 [2]: 8 µM

N=C(N)NCCC[C@@H]1NC(=O)[C@@H](CC(N)=O)NC(=O)CSC[C@@H](C(=O)O)NC(=O)[C@H](CC(=O)O)NC(=O)CNC1=O [Ex. 5, cyclo-S-acetyl-(dAsn)-Arg--Gly--Asp--Cys--OH] ({CH2CO}-[dN]RGDC-OH; thioether N-5)
Ratio of IC50 of test compound to IC50 of Gly-Arg-Gly-Asp-Val [1]: 0.14

C[C@@H](O)[C@@H]1NC(=O)CSC[C@@H](C(=O)O)NC(=O)[C@H](CC(=O)O)NC(=O)CNC(=O)[C@H](CCCNC(=N)N)NC1=O [Ex. 6, cyclo-S-acetyl-Thr--Arg--Gly--Asp--Cys--OH] ({CH2CO}-TRGDC-OH; thioether N-5)
Ratio of IC50 of test compound to IC50 of Gly-Arg-Gly-Asp-Val [1]: 0.46

C[C@H](O)[C@H]1NC(=O)CSC[C@@H](C(=O)O)NC(=O)[C@H](CC(=O)O)NC(=O)CNC(=O)[C@H](CCCNC(=N)N)NC1=O [Ex. 7, Cyclo-S-acetyl-(d-Thr)-Arg-Gly-Asp-Cys-OH] ({CH2CO}-[dT]RGDC-OH; thioether N-5)
Ratio of IC50 of test compound to IC50 of Gly-Arg-Gly-Asp-Val [1, 3]: 0.07

C[C@H](O)[C@H]1NC(=O)CSC[C@@H](C(=O)O)NC(=O)[C@H](CC(=O)O)NC(=O)CNC(=O)[C@H](CCCN=C(N)N)NC1=O [Ex. 7, Cyclo-S-acetyl-(d-Thr)-Arg-Gly-Asp-Cys-OH] ({CH2CO}-[dT]RGDC-OH; thioether N-5)
IC50 [2]: 0.8 µM

C[C@@H]1NC(=O)CSC[C@@H](C(=O)O)NC(=O)[C@H](CC(=O)O)NC(=O)CNC(=O)[C@H](CCCNC(=N)N)NC1=O [Ex. 8, cyclo-S-acetyl-Ala--Arg--Gly--Asp--Cys--OH] ({CH2CO}-ARGDC-OH; thioether N-5)
Ratio of IC50 of test compound to IC50 of Gly-Arg-Gly-Asp-Val [1]: 0.5

C[C@H]1NC(=O)CSC[C@@H](C(=O)O)NC(=O)[C@H](CC(=O)O)NC(=O)CNC(=O)[C@H](CCCNC(=N)N)NC1=O [Ex. 9, cyclo-S-acetyl-(dAla)-Arg--Gly--Asp--Cys--OH] ({CH2CO}-[dA]RGDC-OH; thioether N-5)
Ratio of IC50 of test compound to IC50 of Gly-Arg-Gly-Asp-Val [1, 3]: 0.13 | IC50 [2]: 3 µM

N=C(N)NCCC[C@@H]1NC(=O)[C@H](Cc2ccc(O)cc2)NC(=O)CSC[C@@H](C(=O)O)NC(=O)[C@H](CC(=O)O)NC(=O)CNC1=O [Ex. 10, cyclo-S-acetyl-Tyr--Arg--Gly--Asp--Cys--OH] ({CH2CO}-YRGDC-OH; thioether N-5)
Ratio of IC50 of test compound to IC50 of Gly-Arg-Gly-Asp-Val [1]: 0.38

N=C(N)NCCC[C@@H]1NC(=O)[C@@H]2CCCN2C(=O)CSC[C@@H](C(=O)O)NC(=O)[C@H](CC(=O)O)NC(=O)CNC1=O [Ex. 12, cyclo-S-acetyl-Pro--Arg--Gly--Asp--Cys--OH] ({CH2CO}-PRGDC-OH; thioether N-5)
Ratio of IC50 of test compound to IC50 of Gly-Arg-Gly-Asp-Val [1]: 0.46

N=C(N)NCCC[C@@H]1NC(=O)[C@H]2CCCN2C(=O)CSC[C@@H](C(=O)O)NC(=O)[C@H](CC(=O)O)NC(=O)CNC1=O [Ex. 13, cyclo-S-acetyl-(dPro)-Arg--Gly--Asp--Cys--OH] ({CH2CO}-[dP]RGDC-OH; thioether N-5)
Ratio of IC50 of test compound to IC50 of Gly-Arg-Gly-Asp-Val [1, 3]: 0.05 | IC50 [2]: 2 µM

N=C(N)NCCC[C@@H]1NC(=O)CNC(=O)C(c2ccccc2)SC[C@@H](C(=O)O)NC(=O)[C@H](CC(=O)O)NC(=O)CNC1=O (some centres unmarked) [Ex. 18, cyclo-S-Phenylacetyl-Gly--Arg--Gly--Asp--Cys--OH]
IC50 [2]: 3 µM

N=C(N)NCCC[C@@H]1NC(=O)CNC(=O)CSC[C@@H](C(=O)O)NC(=O)[C@H](CC(=O)O)NC(=O)CNC1=O [cyclo-S-acetyl-Gly-Arg-Gly-Asp-Cys-OH] ({CH2CO}-GRGDC-OH; thioether N-5)
IC50 [1]: 0.005 µM | IC50 [2]: 8.5 µM

GRGDV [Gly--Arg--Gly--Asp--Val, reference compound] [listing 1 of 2 here]
IC50 [1]: 0.02 to 0.04 µM

GRGDV [Gly--Arg--Gly--Asp--Val, reference compound] [listing 2 of 2 here]
Ratio of IC50 of test compound to IC50 of Gly-Arg-Gly-Asp-Val [1, 3]: 1
